Test results published in publication PMC8134075, “Structure of mouse cytosolic sulfotransferase SULT2A8 provides insight into sulfonation of 7α-hydroxyl bile acids” (Journal of Lipid Research, 2021).

Tests used:
[1] = biological target: T1, SULT2A8 (Mus musculus, UniProt Q8BGL3); test: X-ray crystal structure; format: binding; details: pH 5.1
T1 construct: truncated, residues 4-282 (first three residues removed), N-terminal GST tag cleaved with PreScission protease (pGEX-6P-3); E. coli BL21(DE3), purified from inclusion bodies; homodimer in crystal
T1 sequence (Q8BGL3 4-282): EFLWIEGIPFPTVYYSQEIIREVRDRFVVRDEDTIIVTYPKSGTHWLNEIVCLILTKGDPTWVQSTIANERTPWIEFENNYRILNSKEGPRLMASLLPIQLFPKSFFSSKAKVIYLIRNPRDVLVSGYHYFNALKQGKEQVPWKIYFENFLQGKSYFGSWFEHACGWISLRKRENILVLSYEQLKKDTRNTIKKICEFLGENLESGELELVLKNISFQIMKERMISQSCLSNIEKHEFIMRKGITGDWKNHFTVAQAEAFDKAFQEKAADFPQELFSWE

[2] = biological target: T1, SULT2A8; test: thermal shift assay (Thermofluor); format: binding; details: 20 mM Hepes pH 8.0, 150 mM NaCl, 4 mM DTT, ligand 250 mM [sic]
[3] = biological target: T1, SULT2A8; test: HPLC of PAP generated; format: biochemical; details: 50 μM PAPS, 100 μM bile acid, 2.5 mM MgCl2, pH 5.5 or 7.5, 37°C
[4] = biological target: T2, SULT2A8 (Mus musculus, UniProt Q8BGL3, N72W); test: thermal shift assay (Thermofluor); format: binding; details: 20 mM Hepes pH 8.0, 150 mM NaCl, 4 mM DTT; ligand 250 mM [sic]
T2 construct: truncated, residues 4-282 (first three residues removed), N-terminal GST tag cleaved with PreScission protease (pGEX-6P-3); E. coli BL21(DE3), purified from inclusion bodies; homodimer in crystal
T2 sequence (Q8BGL3 4-282 N72W): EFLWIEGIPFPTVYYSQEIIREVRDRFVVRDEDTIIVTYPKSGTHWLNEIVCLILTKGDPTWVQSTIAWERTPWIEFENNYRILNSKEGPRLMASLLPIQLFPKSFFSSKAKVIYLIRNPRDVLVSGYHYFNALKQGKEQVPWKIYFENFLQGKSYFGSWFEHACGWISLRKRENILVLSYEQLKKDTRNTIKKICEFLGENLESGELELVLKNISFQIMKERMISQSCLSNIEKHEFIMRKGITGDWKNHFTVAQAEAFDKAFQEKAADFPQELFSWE

[5] = biological target: T3, SULT2A8 (Mus musculus, UniProt Q8BGL3, L99V); test: thermal shift assay (Thermofluor); format: binding; details: 20 mM Hepes pH 8.0, 150 mM NaCl, 4 mM DTT; ligand 250 mM [sic]
T3 construct: truncated, residues 4-282 (first three residues removed), N-terminal GST tag cleaved with PreScission protease (pGEX-6P-3); E. coli BL21(DE3), purified from inclusion bodies; homodimer in crystal
T3 sequence (Q8BGL3 4-282 L99V): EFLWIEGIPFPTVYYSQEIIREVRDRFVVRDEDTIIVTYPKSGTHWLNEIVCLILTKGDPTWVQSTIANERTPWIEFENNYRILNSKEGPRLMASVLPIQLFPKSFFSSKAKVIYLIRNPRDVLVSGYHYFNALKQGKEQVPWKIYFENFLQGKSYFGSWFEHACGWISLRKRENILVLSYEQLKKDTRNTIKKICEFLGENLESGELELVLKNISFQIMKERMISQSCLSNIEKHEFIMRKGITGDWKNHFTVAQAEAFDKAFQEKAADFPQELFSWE

[6] = biological target: T4, SULT2A8 (Mus musculus, UniProt Q8BGL3, L99T); test: thermal shift assay (Thermofluor); format: binding; details: 20 mM Hepes pH 8.0, 150 mM NaCl, 4 mM DTT; ligand 250 mM [sic]
T4 construct: truncated, residues 4-282 (first three residues removed), N-terminal GST tag cleaved with PreScission protease (pGEX-6P-3); E. coli BL21(DE3), purified from inclusion bodies; homodimer in crystal
T4 sequence (Q8BGL3 4-282 L99T): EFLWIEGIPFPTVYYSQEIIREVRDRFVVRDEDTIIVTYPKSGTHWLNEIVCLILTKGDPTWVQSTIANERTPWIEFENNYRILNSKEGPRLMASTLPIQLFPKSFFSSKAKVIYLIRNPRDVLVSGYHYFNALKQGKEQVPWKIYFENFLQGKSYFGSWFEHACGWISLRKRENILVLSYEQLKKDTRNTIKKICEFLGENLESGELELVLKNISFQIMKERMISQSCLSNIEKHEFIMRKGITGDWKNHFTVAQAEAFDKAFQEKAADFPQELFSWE

[7] = biological target: T5, SULT2A8 (Mus musculus, UniProt Q8BGL3, H48T); test: thermal shift assay (Thermofluor); format: binding; details: 20 mM Hepes pH 8.0, 150 mM NaCl, 4 mM DTT; ligand 250 mM [sic]
T5 construct: truncated, residues 4-282 (first three residues removed), N-terminal GST tag cleaved with PreScission protease (pGEX-6P-3); E. coli BL21(DE3), purified from inclusion bodies; homodimer in crystal
T5 sequence (Q8BGL3 4-282 H48T): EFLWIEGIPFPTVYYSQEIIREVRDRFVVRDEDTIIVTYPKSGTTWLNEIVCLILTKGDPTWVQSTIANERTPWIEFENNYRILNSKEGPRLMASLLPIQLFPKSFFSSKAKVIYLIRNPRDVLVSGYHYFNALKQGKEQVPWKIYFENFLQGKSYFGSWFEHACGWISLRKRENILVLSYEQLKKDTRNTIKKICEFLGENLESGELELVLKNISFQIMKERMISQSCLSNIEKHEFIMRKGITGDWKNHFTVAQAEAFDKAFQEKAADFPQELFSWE

[8] = biological target: the molecule itself; test: crystal structure; SULT2A8 (4-282) cocrystallised with PAP and CA, pH 5.1, 16°C; space group P4(2), two copies per asymmetric unit; dimerization read from analysis of the crystal packing

C[C@H](CCC(=O)O)[C@H]1CC[C@H]2[C@@H]3[C@H](O)C[C@@H]4C[C@H](O)CC[C@]4(C)[C@H]3C[C@H](O)[C@]12C [CA]
X-ray crystal structure, 2.5 A ([1]; co-crystal with PAP, substrate pocket): SULT2A8 was cocrystallized with PAP and its native substrate CA

C[C@H](CCC(=O)O)[C@H]1CC[C@H]2[C@@H]3[C@H](O)C[C@@H]4C[C@H](O)CC[C@]4(C)[C@H]3CC[C@]12C [Na CDC]
Tm [2]: Na CDC, or sodium taurochenodeoxycholate) were added

C[C@H](CCC(=O)O)[C@H]1CC[C@H]2[C@@H]3[C@H](O)C[C@@H]4C[C@H](O)CC[C@]4(C)[C@H]3C[C@H](O)[C@]12C [Na C]
Tm ([2]; with PAP): Tm values were further increased when both PAP and native substrates (Na C, Na T-C

C[C@H](CCC(=O)NCCS(=O)(=O)O)[C@H]1CC[C@H]2[C@@H]3[C@H](O)C[C@@H]4C[C@H](O)CC[C@]4(C)[C@H]3CC[C@]12C [Na T-CDC]
Tm [2]: Na CDC, or sodium taurochenodeoxycholate) were added

Nc1ncnc2c1ncn2[C@@H]1O[C@H](COP(=O)(O)OS(=O)(=O)O)[C@@H](OP(=O)(O)O)[C@H]1O [PAPS]
HPLC of PAP generated [3]: quantification of PAP generated from the sulfonation of substrates

Nc1ncnc2c1ncn2[C@@H]1O[C@H](COP(=O)(O)O)[C@@H](OP(=O)(O)O)[C@H]1O [PAP]
Tm [4]: the Tm value of N72W was increased when PAP was added | Tm [5]: Tm values of these mutants were significantly increased when PAP was included | Tm [6]: Tm values of these mutants were significantly increased when PAP was included | X-ray crystal structure, 2.5 A ([1]; co-crystal with cholic acid, PAPS binding pocket, cofactor product/analogue): SULT2A8 protein was cocrystallized with PAP and CA | Tm [2]: from 54 to 61 °C | Tm [7]: Tm values of these mutants were significantly increased when PAP was included

B1: mouse cytosolic sulfotransferase SULT2A8 (residues 4-282) (enzyme, UniProt Q8BGL3 4-282, looked up)
chain: EFLWIEGIPFPTVYYSQEIIREVRDRFVVRDEDTIIVTYPKSGTHWLNEIVCLILTKGDPTWVQSTIANERTPWIEFENNYRILNSKEGPRLMASLLPIQLFPKSFFSSKAKVIYLIRNPRDVLVSGYHYFNALKQGKEQVPWKIYFENFLQGKSYFGSWFEHACGWISLRKRENILVLSYEQLKKDTRNTIKKICEFLGENLESGELELVLKNISFQIMKERMISQSCLSNIEKHEFIMRKGITGDWKNHFTVAQAEAFDKAFQEKAADFPQELFSWE
notes: Sulfotransferase 2A8 (SULT2A8), mouse, residues 4-282 (first three N-terminal residues removed), cloned in pGEX-6P-3 from pRSET-SULT2A8; Crystallised with the small molecules PAP and cholic acid; two copies per asymmetric unit; also called mSULT2A8; SULT2A8 WT; source: E. coli BL21(DE3), purified from inclusion bodies (Glutathione Sepharose 4B, PreScission cleavage, Superdex 75); not shown: GST, …
binding result [8]: binds
